IC50 data for 23 compounds are collected here from US20240262819A1, “NOVEL COMPOUNDS HAVING INHIBITORY ACTIVITY AGAINST GLUCOSYLCERAMIDE SYNTHASE OR PHARMACEUTICALLY ACCEPTABLE SALT THEREOF, PROCESSES FOR PREPARING THE SAME, AND PHARMACEUTICAL COMPOSITIONS COMPRISING THE SAME” (YUHAN CORPORATION, priority 2021, published 2024).

Like-named read-outs stand apart in the source and are kept apart here.

Assay [1] concerns GM1 production in Jurkat cells. The assay is described as follows: cells. In kind it is cell-based.
Assay [2] deals with glucosylceramide synthase (GCS) (Homo sapiens (Human), UniProt Q16739). The assay is described as follows: Evaluation of inhibitory activities against GCS (A549 cell lysate, NBD C6-ceramide, HPLC). The class given is biochemical. As for the experimental part: The inhibitory activities of the compounds of the present invention against GCS were evaluated, as follows, according to the method described in the known literature (Hayashi Y et al., A sensitive and reproducible assay to measure the activity of glucosylceramide synthase and lactosylceramide synthase using HPLC and fluorescent substrates, Analytical Biochemistry 345 (2005) 181-186). Ibiglustat, known as a GCS inhibitor, was used as a control.
Sequence of glucosylceramide synthase (GCS) (Q16739 whole entry): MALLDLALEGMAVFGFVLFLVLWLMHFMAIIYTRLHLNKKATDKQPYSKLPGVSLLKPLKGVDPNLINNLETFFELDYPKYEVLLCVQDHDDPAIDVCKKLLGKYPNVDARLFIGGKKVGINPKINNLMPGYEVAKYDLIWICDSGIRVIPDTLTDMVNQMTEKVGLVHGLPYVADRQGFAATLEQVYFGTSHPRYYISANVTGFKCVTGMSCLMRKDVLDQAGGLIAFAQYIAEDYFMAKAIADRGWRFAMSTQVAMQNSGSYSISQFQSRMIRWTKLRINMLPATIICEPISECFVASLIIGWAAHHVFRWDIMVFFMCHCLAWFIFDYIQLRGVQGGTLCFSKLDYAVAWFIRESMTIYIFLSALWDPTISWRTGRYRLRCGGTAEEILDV
After the cells attached to the culture dish were washed with phosphate buffered saline (PBS), the cells were scraped off with a cell scraper and then centrifuged (4000 rpm, 3 min, 4 °C) to collect the cells in a 50 ml tube. The cell pellets were suspended in a lysis buffer (50 mM HEPES, pH 7.3, containing 1× the protease/phosphatase inhibitor cocktail), lysed by sonication, and then the lysate was centrifuged (13000 rpm, 10 min, 4° C.). The obtained supernatant was used for the quantitative analysis of proteins. The amount of proteins was measured using the BCA protein assay kit, using bovine serum albumin as a standard.
Enzymatic reactions were initiated by sequentially adding the following reaction materials to a 96 deep-well plate. Thereafter, the enzymatic reactions were performed at 37° C. for 90 minutes.
The enzymatic reactions were stopped by adding 100 μl of chloroform/methanol (2:1, v/v). […] The lower layer (50 μl) was transferred to a new 96 deep-well plate and dried with a reduced concentrator.
Lipids were dissolved in 100 μl of isopropyl alcohol/n-hexane/H2O (55:44:1, v/v/v) and then transferred to a glass vial for HPLC (Agilent, 8004-HP-H/i3u). The sample (100 μl) was automatically loaded onto a normal-phase column (Intersil SIL 150A-5, 4.6×250 mm, GL Sciences, Japan) and then eluted at a flow rate of 2.0 ml/min with isopropyl alcohol/n-hexane/H2O (55:44:1, v/v/v). The fluorescence thereof was measured with a fluorescence detector (Agilent, 1260 FLD Spectra), using 470 nm and 530 nm as excitation and emission wavelengths, respectively.
Data analysis was performed by the following equations.
% Area (Sample)=Area (GlcCer)/[Area (Cer)+Area (GlcCer)]×100%
GCS activity=[Area (Sample)−Area (ibiglustat)]/[Area (DMSO)−Area (ibiglustat)]×100
The obtained % GCS activity data was analyzed with the software GraphPad Prism (Ver 5.01) to calculate the IC50 values.

Where [3] appears, read: % GCS activity, A549 cell lysate, 37° C. for 90 minutes, read-out: IC50.

Take `CC(C)Oc1cccc(-c2cc3c(cc2F)[C@H](NC(=O)O[C@@H]2CN4CCC2CC4)C(C)(C)CC3)c1` [Example 196, (S)-quinuclidin-3-yl((R)-7-fluoro-6-(3-isopropoxyphenyl)-2,2-dimethyl-1,2,3,4-tetrahydronaphthalen-1-yl)carbamate]: the IC50 came to 6 nM in assay [1] (Homo sapiens, Jurkat, 72 h) and 0.43 nM in assay [2].
Taken in the same sequence, the figures for `Cc1cc2c(cc1-c1ccc(OCC(C)C)cc1)CC(C)(C)[C@H]2NC(=O)O[C@@H]1CN2CCC1CC2` [Example 124, (S)-quinuclidin-3-yl((R)-5-(4-isobutoxyphenyl)-2,2,6-trimethyl-2,3-dihydro-1H-inden-1-yl)carbamate] were 1.13 nM and 0.2 nM.
“(S)-quinuclidin-3-yl((R)-7-fluoro-6-(4-isopropylphenyl)-2,2-dimethyl-1,2,3,4-tetrahydronaphthalen-1-yl) carbamate [Example 172]”: the figures for the 50% inhibitory concentration (IC50) in assay [1] (read-out: IC50) and in assay [2] (setting [3]) were 0.86 nM and 0.33 nM, respectively.
As to `CCCCOc1c(C)cc(-c2cc3c(cc2F)[C@H](NC(=O)O[C@@H]2CN4CCC2CC4)C(C)(C)CC3)cc1C` [Example 183, (S)-quinuclidin-3-yl((R)-6-(4-butoxy-3,5-dimethylphenyl)-7-fluoro-2,2-dimethyl-1,2,3,4-tetrahydronaphthalen-1-yl)carbamate], the IC50 in assay [1] (Homo sapiens, Jurkat, 72 h) is 7.6 nM; in assay [2] it was 1.6 nM.
For `CCCOc1ccc(-c2ccc3c(c2)CC(C)(C)[C@H]3NC(=O)O[C@@H]2CN3CCC2CC3)cc1C` [Example 47, (S)-quinuclidin-3-yl((R)-2,2-dimethyl-5-(3-methyl-4-propoxyphenyl)-2,3-dihydro-1H-inden-1-yl) carbamate], the IC50 in assay [1] (read-out: IC50) was found to be 7.7 nM; in assay [2] (setting [3]), 1.89 nM.
On to `CC1(C)Cc2cc(-c3ccc(OCC4CC4)c(Cl)c3)c(F)cc2[C@@H]1NC(=O)O[C@@H]1CN2CCC1CC2` [Example 99, (S)-quinuclidin-3-yl((R)-5-(3-chloro-4-(cyclopropylmethoxy)phenyl)-6-fluoro-2,2-dimethyl-2,3-dihydro-1H-inden-1-yl)carbamate], for which the IC50 was found to be 8.84 nM in assay [1] (Homo sapiens, Jurkat, 72 h) and 0.67 nM in assay [2].
As to `CCCCOc1ccc(-c2cc3c(cc2F)[C@H](NC(=O)O[C@@H]2CN4CCC2CC4)C(C)(C)C3)cc1Cl` [Example 88, (S)-quinuclidin-3-yl((R)-5-(4-butoxy-3-chlorophenyl)-6-fluoro-2,2-dimethyl-2,3-dihydro-1H-inden-1-yl)carbamate], the IC50 in assay [1] (Homo sapiens, Jurkat, 72 h) amounted to 21.1 nM; in assay [2] it was 0.779 nM.
`CCCCc1ccc(-c2cc3c(cc2OCC)[C@H](NC(=O)O[C@@H]2CN4CCC2CC4)C(C)(C)C3)cc1` [Example 130, (S)-quinuclidin-3-yl((R)-5-(4-butylphenyl)-6-ethoxy-2,2-dimethyl-2,3-dihydro-1H-inden-1-yl)carbamate]: the IC50 is 1.53 nM in assay [1] (Homo sapiens, Jurkat, 72 h) and 0.75 nM in assay [2].
With `CCOc1cc2c(cc1-c1ccc(OCC(C)C)cc1)CC(C)(C)[C@H]2NC(=O)O[C@@H]1CN2CCC1CC2` [Example 136, (S)-quinuclidin-3-yl((R)-6-ethoxy-5-(4-isobutoxyphenyl)-2,2-dimethyl-2,3-dihydro-1H-inden-1-yl)carbamate], the IC50 in assay [1] (Homo sapiens, Jurkat, 72 h) stood at 0.87 nM; in assay [2] it was 0.41 nM.
On to `Cc1cc2c(cc1-c1ccc(OC(C)C)cc1)CC(C)(C)[C@H]2NC(=O)O[C@@H]1CN2CCC1CC2` [Example 122, (S)-quinuclidin-3-yl((R)-5-(4-isopropoxyphenyl)-2,2,6-trimethyl-2,3-dihydro-1H-inden-1-yl)carbamate], for which the IC50 was determined as 3.66 nM in assay [1] (Homo sapiens, Jurkat, 72 h) and 0.34 nM in assay [2].
Taken in the same sequence, the figures for `CCOc1ccc(-c2cc3c(cc2F)[C@H](NC(=O)O[C@@H]2CN4CCC2CC4)C(C)(C)C3)cc1C` [Example 105, (S)-quinuclidin-3-yl((R)-5-(4-ethoxy-3-methylphenyl)-6-fluoro-2,2-dimethyl-2,3-dihydro-1H-inden-1-yl)carbamate] were 8.2 nM and 0.72 nM.
For `CCCCOc1ccc(-c2cc3c(cc2OCC)[C@H](NC(=O)O[C@@H]2CN4CCC2CC4)C(C)(C)C3)cc1` [Example 135, (S)-quinuclidin-3-yl((R)-5-(4-butoxyphenyl)-6-ethoxy-2,2-dimethyl-2,3-dihydro-1H-inden-1-yl)carbamate], in that order: 1.46 nM and 0.51 nM.
As to `CCCCOc1ccc(-c2cc3c(cc2F)[C@H](NC(=O)O[C@@H]2CN4CCC2CC4)C(C)(C)CC3)cc1` [Example 178, (S)-quinuclidin-3-yl((R)-6-(4-butoxyphenyl)-7-fluoro-2,2-dimethyl-1,2,3,4-tetrahydronaphthalen-1-yl)carbamate], the IC50 in assay [1] (Homo sapiens, Jurkat, 72 h) stood at 0.4 nM; in assay [2] it was 0.22 nM.
Taken in the same sequence, the figures for `CC(C)c1cccc(-c2cc3c(cc2F)[C@H](NC(=O)O[C@@H]2CN4CCC2CC4)C(C)(C)CC3)c1` [Example 190, (S)-quinuclidin-3-yl((R)-7-fluoro-6-(3-isopropylphenyl)-2,2-dimethyl-1,2,3,4-tetrahydronaphthalen-1-yl)carbamate] were 1.9 nM and 0.72 nM.
Regarding `CCCOc1ccc(-c2cc3c(cc2OCC)[C@H](NC(=O)O[C@@H]2CN4CCC2CC4)C(C)(C)C3)cc1` [Example 133, (S)-quinuclidin-3-yl((R)-6-ethoxy-2,2-dimethyl-5-(4-propoxyphenyl)-2,3-dihydro-1H-inden-1-yl) carbamate], the half-inhibitory concentration (IC50) in assay [1] (read-out: IC50) was found to be 2.63 nM; in assay [2] (setting [3]) it was 0.5 nM.
On to `CC(C)COc1cc(F)cc(-c2cc3c(cc2F)[C@H](NC(=O)O[C@@H]2CN4CCC2CC4)C(C)(C)C3)c1` [Example 109, (S)-quinuclidin-3-yl((R)-6-fluoro-5-(3-fluoro-5-isobutoxyphenyl)-2,2-dimethyl-2,3-dihydro-1H-inden-1-yl)carbamate], for which the IC50 was 11.5 nM in assay [1] (Homo sapiens, Jurkat, 72 h) and 0.69 nM in assay [2].
For `CCOc1cc2c(cc1-c1ccc(CC(C)C)cc1)CC(C)(C)[C@H]2NC(=O)O[C@@H]1CN2CCC1CC2` [Example 131, (S)-quinuclidin-3-yl((R)-6-ethoxy-5-(4-isobutylphenyl)-2,2-dimethyl-2,3-dihydro-1H-inden-1-yl)carbamate], in that order: 6.47 nM and 2.01 nM.
For `COc1ccc(-c2cc3c(cc2F)[C@H](NC(=O)O[C@@H]2CN4CCC2CC4)C(C)(C)C3)cc1Cl` [Example 85, (S)-quinuclidin-3-yl((R)-5-(3-chloro-4-methoxyphenyl)-6-fluoro-2,2-dimethyl-2,3-dihydro-1H-inden-1-yl)carbamate], in that order: 66.7 nM and 0.818 nM.
For `CC1(C)Cc2cc(-c3ccc(OCC(F)(F)F)cc3Cl)c(F)cc2[C@@H]1NC(=O)O[C@@H]1CN2CCC1CC2` [Example 114, (S)-quinuclidin-3-yl((R)-5-(2-chloro-4-(2,2,2-trifluoroethoxy)phenyl)-6-fluoro-2,2-dimethyl-2,3-dihydro-1H-inden-1-yl)carbamate], in that order: 1.7 nM and 0.2 nM.
Turning to `CC(C)(C)Oc1ccc(-c2ccc3c(c2)CC(C)(C)[C@H]3NC(=O)O[C@@H]2CN3CCC2CC3)cc1` [Example 41, (S)-quinuclidin-3-yl((R)-5-(4-(tert-butoxy)phenyl)-2,2-dimethyl-2,3-dihydro-1H-inden-1-yl)carbamate], the IC50 in assay [1] (Homo sapiens, Jurkat, 72 h) came out at 13.6 nM; in assay [2] it was 0.9 nM.
With `Cc1cc(-c2ccc3c(c2)CCC(C)(C)[C@H]3NC(=O)O[C@@H]2CN3CCC2CC3)cc(C)c1OC(C)C` [Example 149, (S)-quinuclidin-3-yl((R)-6-(4-isopropoxy-3,5-dimethylphenyl)-2,2-dimethyl-1,2,3,4-tetrahydronaphthalen-1-yl) carbamate], the concentration for half-maximal inhibition (IC50) in assay [1] (read-out: IC50) came to 14.6 nM; in assay [2] (setting [3]), 1.77 nM.
Regarding `CCCOc1ccc(-c2cc3c(cc2F)[C@H](NC(=O)O[C@@H]2CN4CCC2CC4)C(C)(C)C3)cc1C` [Example 106, (S)-quinuclidin-3-yl((R)-6-fluoro-2,2-dimethyl-5-(3-methyl-4-propoxyphenyl)-2,3-dihydro-1H-inden-1-yl)carbamate], the concentration for half-maximal inhibition (IC50) stood at 2.3 nM in assay [1] (Homo sapiens, Jurkat, 72 h) and 0.61 nM in assay [2].
Take `Cc1cc2c(cc1-c1ccc(C(C)C)cc1)CC(C)(C)[C@H]2NC(=O)O[C@@H]1CN2CCC1CC2` [Example 117, (S)-quinuclidin-3-yl((R)-5-(4-isopropylphenyl)-2,2,6-trimethyl-2,3-dihydro-1H-inden-1-yl)carbamate]: the IC50 came to 4.42 nM in assay [1] (Homo sapiens, Jurkat, 72 h) and 0.47 nM in assay [2].

The term IC50 denotes the concentration at which inhibition is half-maximal.
